Reference: article PMC12024397, “Structure–Activity Study of the Antimicrobial Lipopeptide Humimycin A and Screening Against Multidrug-Resistant Staphylococcus aureus” (Antibiotics, 2025)
In brackets after ≈: the same amount, converted by molar mass. Non-standard residues stand in square brackets, D forms with d. Residues, ends and D or L forms follow the SMILES beside them. *: point of attachment. Tetradecanoyl(3R-OH) = CCCCCCCCCCC[C@@H](O)CC(=O)*; Tetradecanoyl(3S-OH) = CCCCCCCCCCC[C@H](O)CC(=O)*

Legend:
[1] = tested on: S. aureus ATCC 29213; assay: growth kinetics; type: cell-based, Staphylococcus aureus; settings: TSB, 37 °C, 6 h, OD 595 nm every 2 h, peptide at MIC, three independent experiments
Protocol: Figure 2 Growth kinetics of S. aureus ATCC 29213 in the presence of humimycin analogs 12R, 12S, 13R, and 13S. Cultures of S. aureus were treated with various concentrations (2 × MIC, MIC, ½ × MIC, and ¼ × MIC) of the peptides and their growth was monitored by measuring the optical density at 595 nm. The positive control consisted of an untreated S. aureus culture, while the negative control contained only the growth medium without bacterial inoculation. The data represents the mean ± standard deviation of three independent experiments.
The growth kinetics of S. aureus ATCC 29213 in presence of humimycin analogs 12R, 12S, 13R, and 13S was assessed on S. aureus cultures in TSB at 37 °C in the stationary phase. The overnight culture was then diluted 1:100 in fresh TSB to achieve an initial optical density at 600 nm (OD600) of approximately 0.05. Humimycin analogs were prepared at concentrations corresponding to 0.5×, 1×, and 2× the MIC. S. aureus cultures without any analog served as the positive control and culture media was the negative control. The treated and control cultures were incubated at 37 °C for a total duration of 6 h. Absorbance readings at 595 nm were recorded every 2 h using a microplate reader to monitor the bacterial growth. The OD595 values were then plotted against time to generate bacterial growth curves. To ensure reproducibility, all experiments were performed in triplicate, with results expressed in a graph as mean ± standard deviation.

[2] = critical micelle concentration, Nile Red fluorescence; type: physicochemical; settings: overnight equilibration, intersection of linear fits of fluorescence vs log concentration
Protocol: Figure 4 CMC measurements of synthetic humimycin analogs 12R, 12S, 13R, and 13S. The CMC is the concentration at the intersection of the linear fits to the fluorescence intensity against log 10 concentration of peptide. Black circle: monomer; red circle: micelle.
The CMC of synthesized analogs 12R, 12S, 13R, and 13S was determined using the Nile Red fluorescence method, which takes advantage of the dye’s enhanced fluorescence emission in hydrophobic environments. A 500 μM stock solution of Nile Red was prepared in DMSO. Aliquots of 10 μL of this stock solution were added to each well and kept in the dark. Peptide solutions (200 μL) at various concentrations were then added to the well and allowed to equilibrate with the Nile Red overnight. Fluorescence emission spectra were recorded from 485 nm to 636 nm on a SpectraMax i3 spectrofluorometer with an excitation and emission bandwidth 9 nm and 15 nm, respectively. The ratio of the emission intensity was calculated for each peptide concentration and plotted against the logarithm of the peptide concentration. The CMC was determined from the intersection of the linear fits to the data points below and above the transition region in the plot. Tween-20 was used as positive control.

[3] = tested on: S. aureus strain 4-171; type: cell-based, Staphylococcus aureus; settings: broth microdilution, triplicate; isolate 4-171, resistance PEN-AMC-CEF-CTX-FOX
Source text: (§1) Analogs were serially diluted two-fold from stock solutions.

[4] = tested on: Staphylococcus aureus ATCC 29213; type: cell-based
Source text: as §1

[5] = tested on: Staphylococcus aureus ATCC 43300; type: cell-based; settings: for MIC: ATCC 43300; for fold decrease in activity against the methicillin-resistant strain: MIC against MRSA ATCC 43300 compared with MSSA ATCC 29213
Source text: as §1

[6] = tested on: S. aureus strain 4-172; settings: broth microdilution, triplicate; isolate 4-172, resistance PEN-AMC-CEF-CTX-FOX
Source text: (§2) The bacterial strains used in this study included S. aureus ATCC 29213 and ATCC 43300, B. subtilis ATCC […], E. coli ATCC 25922, P. aeruginosa ATCC 27853, and S. enterica serovar Typhimurium ATCC 14028, all of which were purchased from Cedarlane, Canada. Additionally, a collection of 19 S. aureus strains, ranging from antibiotic-sensitive to multidrug-resistant, and originating from clinical intramammary infections (IMI), was selected from the Mastitis Pathogen Culture Collection of the Canadian Bovine Mastitis Research Network (Université de Montréal, St-Hyacinthe, QC, Canada). These strains, previously used in other studies, were also included in this work. S. aureus ATCC 29213 and B. subtilis ATCC 6633 were cultured in Tryptic Soy Broth (TSB) (Difco^TM, Becton, Dickenson & Company, Spark, MD, USA). E. coli ATCC 25922 and P. aeruginosa ATCC 27853 were grown in Luria–Bertani (LB) broth (Fisher Scientific, Fair Lawn, NJ, USA). S. enterica serovar Typhimurium ATCC 14028 was propagated in Nutrient Broth (NB) (Oxoid, Basingstoke, UK). All bacterial cultures were incubated overnight at 37 °C before use and during the performance of assays.
(§3) MIC assays were performed using the broth microdilution method in 96-well plates. Analogs were serially diluted two-fold from stock solutions. The plates were incubated overnight at 37 °C and bacterial growth was monitored by measuring the absorbance at 595 nm over 18–20 h and the assay was performed in triplicate.

[7] = tested on: S. aureus strain 4-140; settings: broth microdilution, triplicate; isolate 4-140, resistance TET
Source text: as §2, §3

[8] = tested on: S. aureus strain 4-131; settings: broth microdilution, triplicate; isolate 4-131, no resistance profile listed
Source text: as §2, §3

[9] = tested on: S. aureus strain 4-139; settings: broth microdilution, triplicate; isolate 4-139, resistance PEN-ERY-CC-TET-KAN
Source text: as §2, §3

[10] = tested on: S. aureus strain 4-159; settings: broth microdilution, triplicate; isolate 4-159, no resistance profile listed
Source text: as §2, §3

[11] = tested on: S. aureus strain 4-144; settings: broth microdilution, triplicate; isolate 4-144, resistance PEN-AMC-CEF-CTX-FOX-CIP-CHL-ERY-TET
Source text: as §2, §3

[12] = tested on: S. aureus strain 4-134; settings: broth microdilution, triplicate; isolate 4-134, resistance PEN-VAN-CEF-CTX-FOX-ERY-CC-TET-KAN-GEN-STR
Source text: as §2, §3

[13] = tested on: S. aureus strain 4-173; settings: broth microdilution, triplicate; isolate 4-173, no resistance profile listed
Source text: as §2, §3

[14] = tested on: S. aureus strain 4-162; settings: broth microdilution, triplicate; isolate 4-162, no resistance profile listed
Source text: as §2, §3

[15] = tested on: S. aureus strain 4-145; settings: broth microdilution, triplicate; isolate 4-145, no resistance profile listed
Source text: as §2, §3

SMILES | effect on bacterial growth at MIC [1] | CMC [2] | MIC [3] [µg/mL] | MIC [4] [µg/mL] | MIC [5] [µg/mL] | MIC [6] [µg/mL] | MIC [7] [µg/mL] | MIC [8] [µg/mL] | MIC [9] [µg/mL] | MIC [10] [µg/mL] | MIC [11] [µg/mL] | MIC [12] [µg/mL] | MIC [13] [µg/mL] | MIC [14] [µg/mL] | MIC [15] [µg/mL] | fold decrease in activity against the methicillin-resistant strain [5] [fold]
CCCCCCCCCCC[C@@H](O)CC(=O)N[C@@H](Cc1c[nH]c2ccccc12)C(=O)N[C@@H](CO)C(=O)N[C@H](Cc1c[nH]c2ccccc12)C(=O)N[C@@H](Cc1ccccc1)C(=O)N[C@@H](C(=O)N[C@H](C(=O)N[C@H](C(=O)O)C(C)C)C(C)C)[C@H](C)O [12R] ({Tetradecanoyl(3R-OH)}-WS[dW]F[dT]VV-OH) | effectively inhibited the growth | approximately 60 μg/mL | 2 (≈ 1.74 µM) | 16 (≈ 13.9 µM) | 16 (≈ 13.9 µM) | 8 (≈ 6.95 µM) | 8 (≈ 6.95 µM) | >256 | 4 (≈ 3.48 µM) | 8 (≈ 6.95 µM) | 8 (≈ 6.95 µM) | >256 | 8 (≈ 6.95 µM) | >256 | 16 (≈ 13.9 µM) | –
CCCCCCCCCCC[C@H](O)CC(=O)N[C@@H](Cc1c[nH]c2ccccc12)C(=O)N[C@@H](CO)C(=O)N[C@H](Cc1c[nH]c2ccccc12)C(=O)N[C@@H](Cc1ccccc1)C(=O)N[C@@H](C(=O)N[C@H](C(=O)N[C@H](C(=O)O)C(C)C)C(C)C)[C@H](C)O [12S] ({Tetradecanoyl(3S-OH)}-WS[dW]F[dT]VV-OH) | effectively inhibited the growth | ~70 µg/mL | 1 (≈ 0.869 µM) | 8 (≈ 6.95 µM) | 16 (≈ 13.9 µM) | 8 (≈ 6.95 µM) | 16 (≈ 13.9 µM) | >256 | 8 (≈ 6.95 µM) | 16 (≈ 13.9 µM) | 16 (≈ 13.9 µM) | >256 | 16 (≈ 13.9 µM) | >256 | 32 (≈ 27.8 µM) | –
CCCCCCCCCCC[C@@H](O)CC(=O)N[C@@H](Cc1c[nH]c2ccccc12)C(=O)N[C@@H](CO)C(=O)N[C@H](Cc1c[nH]c2ccccc12)C(=O)N[C@@H](Cc1ccccc1)C(=O)N[C@@H](C(=O)N[C@@H](C)C(=O)N[C@H](C(=O)O)C(C)C)[C@H](C)O [13R] ({Tetradecanoyl(3R-OH)}-WS[dW]F[dT]AV-OH) | effectively inhibited the growth | ~12 µg/mL | 0.5 (≈ 0.445 µM) | 4 (≈ 3.56 µM) | 128 (≈ 114 µM) | 8 (≈ 7.13 µM) | 16 (≈ 14.3 µM) | >256 | 8 (≈ 7.13 µM) | 16 (≈ 14.3 µM) | 8 (≈ 7.13 µM) | >256 | 8 (≈ 7.13 µM) | >256 | 16 (≈ 14.3 µM) | 32
CCCCCCCCCCC[C@H](O)CC(=O)N[C@@H](Cc1c[nH]c2ccccc12)C(=O)N[C@@H](CO)C(=O)N[C@H](Cc1c[nH]c2ccccc12)C(=O)N[C@@H](Cc1ccccc1)C(=O)N[C@@H](C(=O)N[C@@H](C)C(=O)N[C@H](C(=O)O)C(C)C)[C@H](C)O [13S] ({Tetradecanoyl(3S-OH)}-WS[dW]F[dT]AV-OH) | effectively inhibited the growth | ~40 µg/mL | 8 (≈ 7.13 µM) | 2 (≈ 1.78 µM) | 64 (≈ 57 µM) | 8 (≈ 7.13 µM) | 16 (≈ 14.3 µM) | >256 | 8 (≈ 7.13 µM) | 8 (≈ 7.13 µM) | 16 (≈ 14.3 µM) | >256 | 8 (≈ 7.13 µM) | >256 | 32 (≈ 28.5 µM) | 32
